Values of other authors, collected in patent US10294298B2, “Human PAC1 antibodies” (AMGEN INC., priority 2013, dated 2019).

What was measured:
VPAC1 = molecular target: T1, VPAC1 (Homo sapiens, UniProt P32241); conditions: receptor agonist; background table
T1 sequence (P32241 31-457): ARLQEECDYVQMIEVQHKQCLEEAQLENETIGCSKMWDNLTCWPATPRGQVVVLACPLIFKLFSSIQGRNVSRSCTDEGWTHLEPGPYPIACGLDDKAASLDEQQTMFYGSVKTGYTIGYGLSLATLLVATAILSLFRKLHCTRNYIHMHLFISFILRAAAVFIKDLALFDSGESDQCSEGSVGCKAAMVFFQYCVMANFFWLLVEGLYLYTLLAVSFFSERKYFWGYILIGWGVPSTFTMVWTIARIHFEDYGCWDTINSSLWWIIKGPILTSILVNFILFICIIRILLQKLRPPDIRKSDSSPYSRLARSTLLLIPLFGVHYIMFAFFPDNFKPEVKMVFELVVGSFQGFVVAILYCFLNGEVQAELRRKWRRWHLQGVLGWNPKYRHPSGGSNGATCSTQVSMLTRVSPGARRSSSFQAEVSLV

VPAC2 = molecular target: T2, VPAC2 (Homo sapiens, UniProt P41587); conditions: receptor agonist; background table
T2 sequence (P41587 24-438): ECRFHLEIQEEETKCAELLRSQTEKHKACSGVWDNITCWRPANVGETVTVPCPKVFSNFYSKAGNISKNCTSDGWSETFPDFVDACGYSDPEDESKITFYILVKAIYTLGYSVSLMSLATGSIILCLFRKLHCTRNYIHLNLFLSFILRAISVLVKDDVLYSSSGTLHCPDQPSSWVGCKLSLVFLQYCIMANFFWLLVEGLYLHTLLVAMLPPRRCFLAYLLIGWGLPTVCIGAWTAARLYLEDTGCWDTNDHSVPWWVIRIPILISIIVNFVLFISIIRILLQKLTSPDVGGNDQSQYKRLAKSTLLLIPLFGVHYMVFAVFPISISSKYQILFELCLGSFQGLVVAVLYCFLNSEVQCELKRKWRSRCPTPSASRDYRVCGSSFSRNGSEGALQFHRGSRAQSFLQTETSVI

Maxadilan
EC50 (VPAC1): > 1 µM | EC50 (VPAC2): > 1 µM
